From article PMC5059921, “Chalepin: isolated from Ruta angustifolia L. Pers induces mitochondrial mediated apoptosis in lung carcinoma cells” (BMC Complementary and Alternative Medicine, 2016)
Like-named read-outs stand apart in the source and are kept apart here.

Columns and labels:
A549 cell line = assay: SRB in vitro cytotoxicity screening; format: cell-based, human
Procedure: (§1) The human cell lines A549 (lung cancer) and Ca Ski (cervical cancer) were cultured as monolayer in RPMI 1640 growth media whereas HCT-116 (colon cancer) and MRC5 (human normal lung fibroblasts) was cultured in McCoy’s 5A and EMEM medium, respectively. All cells were purchased from the […] (ATCC, USA). All the media were supplemented with 10 % v/v foetal bovine serum (FBS), 100 μg/mL penicillin/streptomycin, and 50 μg/mL amphotericin B. The cells were cultured in a 5 % CO2 incubator at 37 °C.
(§2) The monolayer cell culture was detached using accutase and the cell count was adjusted to 2.5 x10^5 -3.0 x10^5 cells/mL using medium containing feotal bovine serum. The cells were then plated into 96 wells with a cell density of 5000-7000 cells/well and then incubated for 24 h to allow adherence of cells to the base of well of the plates. The media was then removed and 200 μl of fresh media containing different concentration of various extracts or isolated compounds were added. Cisplatin was used as the positive control. The plates were incubated for 24, 48 and 72 h at 37 °C and 5 % CO2. The cytotoxicity of the extracts and isolated compounds were screened using the […] (SRB) assay. This assay was first described by Houghton in 2007 [8]. The incubation was halted by gentle addition of 50 μl ice cold 4 % trichloroacetic acid (TCA) to each well and the plates were incubated at 4 °C for 1 h. Then, the supernatant was discarded and the plates were washed with distilled water for 5 times and then air dried. SRB dye, 50 μl, (0.4 % w/v) was added into each well and the treated cells and control were incubated at room temperature for 30 min. The unbound dye was removed by rapid washing four times with 1 % acetic acid. The plates were then air dried and 100 μl of tris base (10 mM unbuffered, pH 10.5) was added and the plates were shaken at 500 rpm for 5 min to solublize the bound SRB stain. The plates were then read with an ELISA reader (Synergy H1 Hybrid) at an absorbance of 492 nm.

[1] = tested on: MRC5 (human normal lung fibroblasts); assay: SRB in vitro cytotoxicity screening (toxicity to normal cells); format: cell-based; details: Homo sapiens, MRC5, isolated compounds, 72 h, read-out: IC50 in μg/ml (μM) (MRC5) 72 h (converted)
Procedure: as §1, §2

A549 cells = assay: Intracellular ROS measurement (DCFH-DA); format: cell-based, human; details: A549, 45 μg/ml, 6 h incubation
Procedure: The assay was conducted as described by Ling et al. with some minor modifications. The ROS measurement was done using the fluorescent probe 2’,7’-dichlorofluorescein diacetate (DCFH-DA) that enabled the monitoring of intracellular accumulation of ROS. The A549 cells were seeded into a 96 well plate with a density of 2×10^4 cells per well and allowed to attach overnight. Treatment with chalepin at various concentrations were done the next day and incubated for different time periods. At the end of the incubation period, the media was removed and 5 μM of DCFH-DA which is diluted in media was added to the cells and incubated for 40 min at 37 °C. The cells were then washed three times with clear media and the fluorescence intensity (excitation = 485 nm and emission = 530 nm) was measured using a microplate reader. The morphology of the cells were observed using a fluorescence microscope.

`C=CC(C)(C)c1cc2cc3c(cc2oc1=O)O[C@H](C(C)(C)O)C3` [Chalepin, chalepin] showed an IC50 (A549 cell line; Homo sapiens, A549, 48 h, isolated compounds, 48 h, value in brackets, read-out: IC50 in μg/ml (μM) (A549) 48 h (converted)) of 90.1 µM, an IC50 (A549 cell line; Homo sapiens, A549, 48 h, isolated compounds, 48 h, read-out: IC50 in μg/ml (μM) (A549) 48 h (converted)) of 28.3 ± 1.06 µg/mL and an IC50 (A549 cell line; Homo sapiens, A549, 72 h, isolated compounds, 72 h, read-out: IC50 in μg/ml (μM) (A549) 72 h (converted)) of 8.69 ± 2.43 µg/mL. It also gave an IC50 (A549 cell line; Homo sapiens, A549, 72 h, read-out: IC50 in μg/ml (μM) (A549) 72 h, isolated compounds, 72 h, value in brackets) of 27.6 µM, an IC50 (A549 cell line; isolated compounds, 72 h, value in brackets, read-out: IC50 in μg/ml (μM) (A549) 72 h (converted)) of 28 µM and an IC50 ([1]; value in brackets) of 74.5 µM. The IC50 [1] was 23.4 ± 0.6 µg/mL and the “ROS fold increase vs untreated control” value (A549 cells) was 62.24 fold.
